These results are taken from article PMC8700061, “Fragment-Sized and Bidentate (Immuno)Proteasome Inhibitors Derived from Cysteine and Threonine Targeting Warheads” (Cells, 2021).

One data set has as its system GSH. The data set is described as follows: HPLC-based GSH reactivity assay. The format is physicochemical. The following applies: 5 mM glutathione (GSH) in PBS buffer; 250 µM compound, 5 mM GSH, PBS pH 7.4; read-out: Reactivity with GSH (HPLC-based assay), t1/2. The protocol: GSH reactivity assay was performed as described by Petri et al.; 500 μM solution of compound (PBS buffer pH 7.4, 10% MeCN, 250 μL) with 200 μM solution of indoprofen as internal standard were added to 10 mM GSH solution (dissolved in PBS buffer, 250 μL) in a 1:1 ratio. […] The final mixture was analyzed by HPLC after 0, 1, 2, 4, 8, 12, 24, 48, and 72 h. The degradation kinetics were also studied using the method described in [24], except that pure PBS buffer was used instead of GSH solution. […] The area under the curve (AUC) values were determined by integrating the HPLC spectra and then corrected with the internal standard.

The target in another data set is T1, β5i subunit of human iCP (Homo sapiens, UniProt P20618+P28062).
T1 construct: purchased Boston Biochem, Inc., Cambridge, MA, USA
The data set is described as follows: Inhibition of β5i activity (RA at 10 µM, IC50, IC50 shift), Suc-LLVY-AMC. The format is biochemical. The following applies: for Group efficiency (GE): ΔpIC50/ΔNheavy with compound 1 as reference. The method, then: Residual activity measurements were performed at 10 μM final concentrations in the assay buffer (0.01% SDS, 50 mM Tris-HCl, 0.5 mM EDTA, pH 7.4). Stock solutions of the compounds were prepared in DMSO. To 50 μL of each compound in buffer, 25 μL of 0.8 nM human iCP or human cCP (both from Boston Biochem, Inc., Cambridge, MA, USA) were added. After incubation at 37 °C for 30 min, the reaction was started by adding of 25 μL of 100 μM relevant fluorogenic substrate: acetyl-Nle-Pro-Nle-Asp-AMC (Ac-nLPnLD-AMC, (Bachem, Bubendorf, Switzerland)) for β1, acetyl-Pro-Ala-Leu-7-amino-4-methylcoumarin (Ac-PAL-AMC, (Boston Biochem, Inc., Cambridge, MA, USA)) for β1i, t-butyloxycarbonyl-Leu-Arg-Arg-7-amino-4-methylcoumarin (Boc-LRR-AMC, (Bachem, Bubendorf, Switzerland)) for β2 and β2i, succinyl-Leu-Leu-Val-Tyr-7-amino-4-methylcoumarin (Suc-LLVY-AMC) (Bachem, Bubendorf, Switzerland) for β5 and β5i. Reaction progress was recorded on BioTek Synergy HT microplate reader by monitoring fluorescence at 460 nm (λex = 360 nm) for 90 min at 37 °C. The initial linear ranges were used to calculate velocity and determine residual activity. In the case of evaluation of β1, βi, β2, and β2i activities, the assay buffer was modified by replacing SDS with the proteasomal activator PA28α (Boston Biochem, Inc., Cambridge, MA, USA).
Final assay mixtures contained 0.2 nM human iCP or 0.2 nM human cCP in assay buffer (0.01% SDS (or PA28α in cases of β1, β1i subunits), 50 mM Tris-HCl, 0.5 mM EDTA, pH 7.4). Inhibitors were dissolved in DMSO and added to the black 96-well plates for at least eight different concentrations (the final concentration of DMSO was not more than 1%). […] Fluorescence was monitored at 460 nm (λex = 360 nm) for 90 min at 37 °C. The progress of the reactions was recorded and the initial linear ranges were used to calculate the velocity. IC50 values were calculated using GraphPadPrism (GraphPad Software, San Diego, CA, USA) and are means from at least three independent determinations.

The nature of data set [1]: HPLC-based stability assay in PBS. In kind it is physicochemical. The following applies: PBS pH 7.4. The protocol: GSH reactivity assay was performed as described by Petri et al.; 500 μM solution of compound (PBS buffer pH 7.4, 10% MeCN, 250 μL) with 200 μM solution of indoprofen as internal standard were added to 10 mM GSH solution (dissolved in PBS buffer, 250 μL) in a 1:1 ratio. The final concentration was 250 μM compound, 100 μM indoprofen, 5 mM GSH and 5% MeCN (500 μL). The final mixture was analyzed by HPLC after 0, 1, 2, 4, 8, 12, 24, 48, and 72 h. The degradation kinetics were also studied using the method described in [24], except that pure PBS buffer was used instead of GSH solution. In this experiment, the final concentration of the mixture was 250 μM fragment, 100 μM indoprofen and 5% MeCN. The area under the curve (AUC) values were determined by integrating the HPLC spectra and then corrected with the internal standard.

The mark [2] stands for this setting: 30 min pre-incubation, SDS activator, read-out: IC50 (µM), β5i.
Setting [3] is: 0 min pre-incubation (IC50 shift), read-out: IC50 (µM), β5i, without pre-incubation.
The mark [4] stands for this setting: 30 min pre-incubation, SDS activator.

Read-outs that look alike come from different tables or passages of the source.

For `COc1cccc2oc(C#N)nc12` [Compound 6], the half-life at 250 µM in the data set with GSH was less than 3 min. Besides, the IC50 – broadly, the point on the concentration scale where inhibition reaches its midpoint – at β5i subunit of human iCP (setting [2]) amounted to 11 ± 7 µM. Also, on β5i subunit of human iCP, the “Group efficiency (GE)” value came to 0.44. In addition, the “Stability in Buffer (HPLC-based assay)” value in data set [1] is on record as “stable ^c,d”.
Regarding `N#Cc1nc2c(O)cccc2o1` [Compound 10], the 50% inhibitory concentration (IC50) is 10 ± 1 µM on β5i subunit of human iCP (setting [3]); 3.6 ± 2.8 µM on β5i subunit of human iCP (setting [2]); 0.5 ± 0.07 µM on β5i subunit of human iCP (IC50 (µM), β5i, 60-min pre-incubation, 60 min pre-incubation (IC50 shift)). Further, the “IC50 (µM), β5i” value on β5i subunit of human iCP (setting [4]) is given as “single digit micromolar”. The “Group efficiency (GE)” value at β5i subunit of human iCP worked out at 1.36.
Consider `N#Cc1nc2cc(O)ccc2o1` [Compound 11], for which, on β5i subunit of human iCP (setting [4]), the “IC50 (µM), β5i” value is given as “single digit micromolar”. The concentration for half-maximal inhibition (IC50) at β5i subunit of human iCP (setting [2]) was determined as 4.2 ± 2.5 µM. Moreover, the “Group efficiency (GE)” value at β5i subunit of human iCP came to 1.30.
For the compound `N#Cc1nc2cccc(O)c2o1` [Compound 13], the “IC50 (µM), β5i” value at β5i subunit of human iCP (setting [4]) is reported as “single digit micromolar”. Moreover, on β5i subunit of human iCP (setting [2]), the IC50 worked out at 2.1 ± 1.2 µM. Besides, the “Group efficiency (GE)” value at β5i subunit of human iCP worked out at 1.60.
Turning to `CC(=O)Oc1cccc2oc(C#N)nc12` [Compound 14], the “IC50 (µM), β5i” value at β5i subunit of human iCP (setting [4]) is listed as “single digit micromolar”. Moreover, the IC50 at β5i subunit of human iCP (setting [2]) stood at 19 ± 9 µM. Further, on β5i subunit of human iCP, the “Group efficiency (GE)” value is 0.16.
As for `CC(=O)Oc1ccc2oc(C#N)nc2c1` [Compound 15], the IC50 at β5i subunit of human iCP (setting [2]) is 7.4 ± 1.7 µM. At β5i subunit of human iCP, the “Group efficiency (GE)” value is on record as 0.26.
For the compound `C=Cc1nc(CC(=O)N[C@@H](CC(C)C)B2O[C@@H]3C[C@@H]4C[C@@H](C4(C)C)[C@]3(C)O2)cs1` [Compound 28], the IC50 at β5i subunit of human iCP (setting [2]) was 1.4 µM.
Regarding `CC(C)C[C@H](NC(=O)CCn1c(C#N)nc2ccccc21)B1O[C@@H]2C[C@@H]3C[C@@H](C3(C)C)[C@]2(C)O1` [Compound 30], the IC50 on β5i subunit of human iCP (setting [3]) came to 1.5 ± 0.3 µM; on β5i subunit of human iCP (setting [2]) it was 0.6 µM. In addition, the “Stability in Buffer (HPLC-based assay)” value in data set [1] is given as “stable ^b,c”.
For `CC(C)C[C@H](NC(=O)CCCn1c(C#N)nc2ccccc21)B1O[C@@H]2C[C@@H]3C[C@@H](C3(C)C)[C@]2(C)O1` [Compound 31], on β5i subunit of human iCP (setting [2]), the half-inhibitory concentration (IC50) turned out to be 5.7 ± 0.9 µM. Besides, the “Stability in Buffer (HPLC-based assay)” value in data set [1] is given as “stable ^b,c”.
For the compound `CC(C)C[C@H](NC(=O)CCn1c(C#N)nc2ccccc21)B(O)O` [Compound 34], the IC50 was determined as 5.1 µM on β5i subunit of human iCP (setting [3]) and 2.2 ± 0.6 µM at β5i subunit of human iCP (setting [2]).
For the compound `CC(C)C[C@H](NC(=O)CCCn1c(C#N)nc2ccccc21)B(O)O` [Compound 35], the half-inhibitory concentration (IC50) at β5i subunit of human iCP (setting [2]) was determined as 7.9 ± 0.5 µM.
For `CC(C)C[C@H](NC(=O)CCn1c(C#N)nc2cccc(Cl)c21)B1O[C@@H]2C[C@@H]3C[C@@H](C3(C)C)[C@]2(C)O1` [Compound 38], the figures for the IC50 at β5i subunit of human iCP (setting [3]) and at β5i subunit of human iCP (setting [2]) were 6.4 ± 0.7 µM and 0.6 ± 0.1 µM, respectively. The “Stability in Buffer (HPLC-based assay)” value in data set [1] was “stable ^b,c”.
Consider `CC(C)C[C@H](NC(=O)Cc1ccc2oc(C#N)nc2c1)B1O[C@@H]2C[C@@H]3C[C@@H](C3(C)C)[C@]2(C)O1` [Compound 39], for which, in the data set on GSH, the half-life at 250 µM lay in the range of 3 to 60 min. Moreover, the figures for the IC50 on β5i subunit of human iCP (setting [3]) and at β5i subunit of human iCP (setting [2]) were 3.2 ± 0.4 µM and 3.1 ± 0.3 µM, respectively. Further, the “Stability in Buffer (HPLC-based assay)” value in data set [1] is “stable ^b,c”.
On to `CC(C)C[C@H](NC(=O)Cc1ccc2oc(C#N)nc2c1)B(O)O` [Compound 40], for which the concentration for half-maximal inhibition (IC50) at β5i subunit of human iCP (setting [2]) was found to be 2.4 ± 1 µM.
